Where two headings read alike, the source gives them in different places.
Key:
PfCRT [1] = experiment: Test of solutes as potential co-substrates for influx of VF-6 via PfCRT into the oocyte; format: cell-based, Plasmodium falciparum; parameters: key: X: Compounds that have been tested as potential co-substrates but are not required for influx of VF-6 via PfCRT into the oocyte; settings: X = tested
PfCRT [2] = experiment: Potential co-substrates tested for influx of VF-6 via PfCRT into the oocyte; format: cell-based, Plasmodium falciparum; parameters: key: X: Compounds that have been tested as potential co-substrates but are not required for influx of VF-6 via PfCRT into the oocyte
PfCRT^Dd2 = PfCRT^Dd2 (Plasmodium falciparum, UniProt Q9N623, A220S/I356T/K76T/M74I/N326S/N75E/Q271E/R371I); experiment: cell-based; format: cell-based; settings: […]; for activity at 45000 µM: [test solute]i = 45 mM (30 mM for some solutes due to solubility)
Sequence of PfCRT^Dd2 (Q9N623 whole entry A220S/I356T/K76T/M74I/N326S/N75E/Q271E/R371I): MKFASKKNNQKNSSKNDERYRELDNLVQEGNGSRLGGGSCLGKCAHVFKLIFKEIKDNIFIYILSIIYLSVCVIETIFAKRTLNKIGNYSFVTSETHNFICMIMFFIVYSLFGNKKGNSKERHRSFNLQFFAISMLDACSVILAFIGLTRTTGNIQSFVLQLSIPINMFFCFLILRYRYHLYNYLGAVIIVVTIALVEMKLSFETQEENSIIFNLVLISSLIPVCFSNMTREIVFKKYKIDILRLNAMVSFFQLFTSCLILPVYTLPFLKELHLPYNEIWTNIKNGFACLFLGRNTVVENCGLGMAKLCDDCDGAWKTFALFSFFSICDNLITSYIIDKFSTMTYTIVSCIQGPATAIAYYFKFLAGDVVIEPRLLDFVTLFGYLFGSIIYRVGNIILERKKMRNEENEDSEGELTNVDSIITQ
Outline: (§1)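 Transport measured in Xenopus oocytes expressing the transporters, 1.5 h at 27.5 °C in ND96 pH 5.5 unless noted. For trans-stimulation, VF-6 injected in 25 nL ND96 at pH 5.0–7.0 or Na^+-free (choline) buffer; intracellular levels based on ~400 nL oocyte volume. Ten oocytes per treatment, ≥4 experiments.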

PfNT1 = biological target: T1, PfNT1 (Plasmodium falciparum, UniProt Q8IDM6); experiment: cell-based; format: cell-based; settings: for activity at 5000 µM: total [3H]CQ transport
T1 construct: expressed in transfected cells; host or cells: Xenopus laevis oocytes (stage V-VI), cRNA-injected
T1 sequence (Q8IDM6 whole entry): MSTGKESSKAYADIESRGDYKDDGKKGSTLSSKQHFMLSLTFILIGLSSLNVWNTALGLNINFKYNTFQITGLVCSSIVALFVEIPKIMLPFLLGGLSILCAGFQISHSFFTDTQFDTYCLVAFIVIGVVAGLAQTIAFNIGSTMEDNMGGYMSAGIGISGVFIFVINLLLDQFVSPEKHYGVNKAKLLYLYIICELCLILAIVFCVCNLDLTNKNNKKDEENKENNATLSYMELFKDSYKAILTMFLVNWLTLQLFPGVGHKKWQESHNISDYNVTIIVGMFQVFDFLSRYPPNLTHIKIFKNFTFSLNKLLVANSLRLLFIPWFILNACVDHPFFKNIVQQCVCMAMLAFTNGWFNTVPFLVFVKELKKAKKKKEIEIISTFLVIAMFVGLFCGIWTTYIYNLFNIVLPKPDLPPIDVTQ
Outline: as §1

PfCRT^Ecu1110 = PfCRT^Ecu1110 (Plasmodium falciparum, UniProt Q9N623, A220S/I356L/K76T/N326D); experiment: cell-based; format: cell-based; settings: […]
Sequence of PfCRT^Ecu1110 (Q9N623 whole entry A220S/I356L/K76T/N326D): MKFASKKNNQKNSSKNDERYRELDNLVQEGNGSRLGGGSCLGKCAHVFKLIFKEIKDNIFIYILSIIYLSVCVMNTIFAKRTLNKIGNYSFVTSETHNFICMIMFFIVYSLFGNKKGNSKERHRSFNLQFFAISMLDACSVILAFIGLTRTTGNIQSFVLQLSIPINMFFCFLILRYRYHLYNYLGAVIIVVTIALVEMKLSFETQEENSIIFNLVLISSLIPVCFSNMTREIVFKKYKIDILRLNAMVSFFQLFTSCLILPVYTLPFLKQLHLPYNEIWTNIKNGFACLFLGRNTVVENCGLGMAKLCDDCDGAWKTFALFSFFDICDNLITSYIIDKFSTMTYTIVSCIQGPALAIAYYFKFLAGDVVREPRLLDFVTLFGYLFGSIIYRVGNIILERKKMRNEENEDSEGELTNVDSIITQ
Outline: as §1

PfCRT^3D7 = PfCRT^3D7 (Plasmodium falciparum, UniProt Q8IBZ9); experiment: cell-based; format: cell-based
Sequence of PfCRT^3D7 (Q8IBZ9 59-398): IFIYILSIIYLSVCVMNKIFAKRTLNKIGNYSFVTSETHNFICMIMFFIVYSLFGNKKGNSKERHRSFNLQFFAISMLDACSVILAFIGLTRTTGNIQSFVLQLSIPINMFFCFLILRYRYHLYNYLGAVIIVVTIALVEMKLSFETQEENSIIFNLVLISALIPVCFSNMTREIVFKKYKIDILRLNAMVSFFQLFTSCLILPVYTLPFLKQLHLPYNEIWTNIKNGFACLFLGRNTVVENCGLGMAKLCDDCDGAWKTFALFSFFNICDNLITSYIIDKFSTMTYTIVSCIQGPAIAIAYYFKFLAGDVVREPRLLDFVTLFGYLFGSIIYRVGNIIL
Outline: as §1

non-expressing oocytes [3] = format: cell-based, Xenopus laevis; settings: total [3H]CQ transport; for Uptake of [3H]CQ (% non-expressing oocyte control), trans-stimulation: non-expressing oocytes, normalised to the oocyte type control; for Uptake of [3H]CQ (% PfCRTDd2 control), trans-stimulation, non-expressing oocytes: mean ± SEM, SEM
Outline: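 Oocytes (ten per treatment, ≥4 independent frogs/days) were preloaded by injecting VF-6 in 25 nL ND96 at pH 5.0, 5.5, 6.0 or 7.0, or Na^+-free choline buffer, then uptake run 1.5 h, 27.5 °C, ND96 pH 5.5 by default. Internal concentrations assumed ~400 nL oocyte volume.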

non-expressing oocytes [4] = experiment: cells; format: cell-based, Xenopus laevis; settings: Xenopus laevis, Oocyte, total [3H]CQ transport, mean ± SEM, SEM, read-out: Uptake of [3H]CQ (% PfCRTDd2 control), cis-inhibition, non-expressing oocytes
Outline: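 Oocytes expressing PfCRT isoforms, or non-expressing controls, were incubated 1.5 h at 27.5 °C in ND96 buffer pH 5.5 (96 mM NaCl, 2 mM KCl, 1 mM MgCl2, 1.8 mM CaCl2, 10 mM MES, 10 mM Tris-base), measuring uptake from acidic medium into cytosol. Oocytes were washed ice-cold, SDS-lysed and counted by scintillation.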

SMILES: N=C(N)NCCC[C@H](N)C(=O)O [L-arginine]
- Tested as potential co-substrate but not required for influx of VF-6 via PfCRT into the oocyte (PfCRT [1]): X
- Tested as potential co-substrate but not required for influx of VF-6 via PfCRT into the oocyte (PfCRT [2]): X
- activity at 5000 µM (PfCRT^Dd2; pH 5.5, read-out: PfCRT-mediated [3H]CQ transport, trans-stimulation (% PfCRTDd2 control), [test solute]i = 5 mM (intracellular), PfCRTDd2 oocytes, normalised to oocyte type control): 98 ± 2.1%
- activity at 5000 µM (PfCRT^Dd2; pH 5.5, read-out: Uptake of [3H]CQ (% PfCRTDd2 control), trans-stimulation, PfCRTDd2, total [3H]CQ transport, [test solute]i = 5 mM (intracellular), mean ± SEM, SEM): 100 ± 3.5%
- activity at 5000 µM (PfCRT^Dd2; pH 5.5, read-out: Uptake of [3H]CQ (% PfCRTDd2 control), trans-stimulation, PfCRTDd2 oocytes, [test solute]i = 5 mM, total [3H]CQ transport, normalised to the oocyte type control): 100 ± 3.5%
- activity at 45000 µM (PfCRT^Dd2; pH 5.5, read-out: Uptake of [3H]CQ (% PfCRTDd2 control), trans-stimulation, PfCRTDd2 oocytes, total [3H]CQ transport, normalised to the oocyte type control): 97 ± 4.2%
- activity at 5000 µM (PfCRT^Dd2; pH 5.5, read-out: [3H]CQ transport (% PfCRTDd2 control), trans-stimulation, PfCRTDd2, trans-stimulation, [test solute]i = 5 mM (injected), PfCRT-mediated component (background subtracted), mean ± SEM, SEM): 98 ± 2.1%
- activity at 45000 µM (PfCRT^Dd2; pH 5.5, read-out: [3H]CQ transport (% PfCRTDd2 control), trans-stimulation, PfCRTDd2, trans-stimulation, PfCRT-mediated component (background subtracted), mean ± SEM, SEM): 95 ± 2.5%
- activity at 5000 µM (PfNT1; PfNT1 oocytes, [test solute]i = 5 mM, normalised to the oocyte type control, read-out: Uptake of [3H]CQ (% PfNT1 control), trans-stimulation): 98 ± 3.8%
- activity at 45000 µM (PfNT1; SEM, read-out: Uptake of [3H]CQ (% PfCRTDd2 control), trans-stimulation, PfNT1): 3.1 ± 0.07%
- activity at 45000 µM (PfNT1; read-out: Uptake of [3H]CQ (% PfNT1 control), trans-stimulation): 98 ± 3.2%
- activity at 5000 µM (PfNT1; [test solute]i = 5 mM (intracellular), mean ± SEM, SEM, read-out: Uptake of [3H]CQ (% PfCRTDd2 control), trans-stimulation, PfNT1): 3.3 ± 0.03%
- activity at 5000 µM (PfCRT^Ecu1110; pH 5.5, read-out: PfCRT-mediated [3H]CQ transport, trans-stimulation (% PfCRTEcu1110 control), [test solute]i = 5 mM (intracellular), PfCRTEcu1110 oocytes, normalised to oocyte type control): 98 ± 4.1%
- activity at 5000 µM (PfCRT^Ecu1110; pH 5.5, read-out: Uptake of [3H]CQ (% PfCRTEcu1110 control), trans-stimulation, PfCRTEcu1110 oocytes, [test solute]i = 5 mM, total [3H]CQ transport, normalised to the oocyte type control): 100 ± 3.7%
- activity at 45000 µM (PfCRT^Ecu1110; pH 5.5, read-out: Uptake of [3H]CQ (% PfCRTEcu1110 control), trans-stimulation, PfCRTEcu1110 oocytes, [test solute]i = 45 mM (30 mM for some solutes due to solubility), total [3H]CQ transport, normalised to the oocyte type control): 99 ± 2.5%
- activity at 5000 µM (PfCRT^Ecu1110; read-out: Uptake of [3H]CQ (% PfCRTDd2 control), trans-stimulation, PfCRTEcu1110, total [3H]CQ transport, [test solute]i = 5 mM (intracellular), mean ± SEM, SEM): 36 ± 2.1%
- activity at 45000 µM (PfCRT^Ecu1110; read-out: Uptake of [3H]CQ (% PfCRTDd2 control), trans-stimulation, PfCRTEcu1110, total [3H]CQ transport, [test solute]i = 45 mM (intracellular; 30 mM for some solutes due to solubility), mean ± SEM, SEM): 35 ± 2.2%
- activity at 5000 µM (PfCRT^3D7; PfCRT3D7 oocytes, [test solute]i = 5 mM, total [3H]CQ transport, normalised to the oocyte type control, read-out: Uptake of [3H]CQ (% PfCRT3D7 control), trans-stimulation): 97 ± 2.2%
- [3H]CQ transport (% PfCRT3D7 control), trans-stimulation, PfCRT3D7 (PfCRT^3D7; SEM): 0.3 ± 0.02 % PfCRT3D7 control
- activity at 5000 µM (PfCRT^3D7; [test solute]i = 5 mM (intracellular), PfCRT3D7 oocytes, normalised to oocyte type control, read-out: PfCRT-mediated [3H]CQ transport, trans-stimulation (% PfCRT3D7 control)): 96 ± 3.7%
- activity at 45000 µM (PfCRT^3D7; SEM, read-out: Uptake of [3H]CQ (% PfCRTDd2 control), trans-stimulation, PfCRT3D7): 3.3 ± 0.02%
- activity at 45000 µM (PfCRT^3D7; read-out: PfCRT-mediated [3H]CQ transport, trans-stimulation (% PfCRT3D7 control)): 96 ± 3.1%
- activity at 45000 µM (PfCRT^3D7; read-out: Uptake of [3H]CQ (% PfCRT3D7 control), trans-stimulation): 98 ± 4.4%
- activity at 5000 µM (PfCRT^3D7; total [3H]CQ transport, [test solute]i = 5 mM (intracellular), mean ± SEM, SEM, read-out: Uptake of [3H]CQ (% PfCRTDd2 control), trans-stimulation, PfCRT3D7): 3.3 ± 0.06%
- Uptake of [3H]CQ (% non-expressing oocyte control), trans-stimulation (non-expressing oocytes [3]; [test solute]i = 5 mM): 97 ± 4.1 % non-expressing oocyte control
- Uptake of [3H]CQ (% non-expressing oocyte control), trans-stimulation (non-expressing oocytes [3]; [test solute]i = 45 mM (30 mM for some solutes due to solubility)): 98 ± 3.9 % non-expressing oocyte control
- Uptake of [3H]CQ (% PfCRTDd2 control), trans-stimulation, non-expressing oocytes (non-expressing oocytes [3]; [test solute]i = 5 mM (intracellular)): 2.7 ± 0.07 % PfCRTDd2 control
- Uptake of [3H]CQ (% PfCRTDd2 control), trans-stimulation, non-expressing oocytes (non-expressing oocytes [3]; [test solute]i = 45 mM (intracellular; 30 mM for some solutes due to solubility)): 3.0 ± 0.01 % PfCRTDd2 control
- inhibition at 500 µM (non-expressing oocytes [4]; [test solute] = 0.5 mM): 2.5 ± 0.06%
- inhibition at 1000 µM (non-expressing oocytes [4]; [test solute] = 1 mM): 2.7 ± 0.06%
- inhibition at 2000 µM (non-expressing oocytes [4]; [test solute] = 2 mM): 2.1 ± 0.1%

— paper PMC7413254 (Nature Communications, 2020)
